Experimental data from patent US7524503B2, “Human cytomegalovirus (HCMV) cytotoxic T cell epitopes, polyepitopes compositions comprising same and diagnostic and prophylactic and therapeutic uses therefor” (priority 2001, dated 2009).

Experiments:
[1] = molecular target: T1, HLA B7 (Homo sapiens, UniProt P01889); format: cell-based; settings: HLA B7 on transfected T2 cells; relative increase vs no peptide at 26° C.
T1 construct: expressed in transfected cells; host or cells: T2 cells

[2] = system: HLA A24; assay: MHC stabilization assay on T2 cells; format: cell-based, human; settings: HLA A24 on transfected T2 cells; relative increase vs no peptide at 26° C.
[3] = molecular target: T2, HLA A3 (Homo sapiens, UniProt P04439); assay: MHC stabilization assay on T2 cells; format: cell-based; settings: HLA A3 on transfected T2 cells; relative increase vs no peptide at 26° C.
T2 construct: EGFP; expressed in transfected cells; host or cells: T2 cells

[4] = system: PBMC from healthy HCMV seropositive donors; assay: IFN-γ ELISPOT assay; format: cell-based, human; settings: peptide 10 μg/ml
Method in brief: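 IFN-γ-secreting T cells were counted as spots, with no-peptide control wells subtracted and means taken from triplicate wells. These spots came from healthy seropositive carriers' PBMC, 2.5×10^5 per well.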

[5] = system: CD4+ T cells; assay: CD4+/CD8+ analysis of 20-mer peptides (intracellular IFN-γ staining or depletion ELISPOT); format: cell-based, human
Protocol: (§1) To determine whether a particular 20-mer peptide contained either a CD4^+- or CD8^+-restricted epitope, or both, CD4^+/CD8^+ cell depletion ELISPOT assays were performed on PBMC from healthy virus carriers. For any one experiment, three populations of cells were used: a) CD8^+-depleted PBMC, b) CD4^+-depleted PBMC, and c) non-depleted PBMC. These populations of cells were tested concurrently with the same peptides in a conventional ELISPOT assay as described herein above. DYNABEADS M-450 (Dynal, Oslo, Norway) that bound specifically to CD4^+- or CD8^+ cells were used to perform the depletion essentially according to manufacturers instructions. Beads were washed twice in cold PBS supplemented with 2% FCS using magnetic isolation. The requisite number of cells was resuspended in cold PBS supplemented with 2% FCS, added to the beads and then incubated at 4° C., in the dark, for 30 mins (CD8^+ beads) or 60 mins (CD4^+ beads). Populations were depleted of CD4^+ or CD8^+ cells using magnetic separation. After depletion, the non-attached cells were removed and washed once in growth medium, counted and used in conventional ELISPOT assay. Depleted cells were used at 1.7×10^5 cells per well and the non-depleted population was used at the standard 2.5×10^5 cells per well. After the depletion step, each respective cell population was assessed for the purity of CD4^+ and CD8^+ T cells by three-colour flow cytometry. Samples of depleted cell populations were stained with anti-CD3 antibody directly conjugated to fluorescein isothiocyanate (FITC), anti-CD4 antibody conjugated with phycoerythrin (PE) fluorochrome, and anti-CD8 antibody conjugated with Tricolor fluorochrome (described below). The percent of CD3^+/CD4^+ cells present within the CD8^+-depleted population and the percent of CD3^+/CD8^+ cells present within the CD4^+-depleted populations were assessed on FACSCalibur cytometer (Becton Dickinson). The purity of each population was greater than 90% and the results from the ELISPOT assays are expressed as the percentage of CD4+ or CD8^+ cells within the depleted populations that responded toward each peptide by producing IFN-γ.
(§2) PBMCs were incubated at 37° C. in RPMI+10% FCS with and without 10 μg/ml peptides for 6 hours. Golgiplug™ (Pharmingen, San Diego, Calif., USA) was added to the samples according to manufacturer's instructions during the second hour of incubation and cells activated with 25 ng/ml phorbol 12-myristidate 13-acetate (PMA; Sigma-Aldrich Co, St. Louis Mo.) and 1 μg/ml iomomycin (Sigma) acted as a positive control. Following the incubation, 1×10^6 cells/sample were washed and resuspended in staining buffer consisting of PBS with GolgiPlug™, 3% FCS and sodium azide. Cells were then stained with FITC conjugated anti-CD3-FITC (UCHT1, Immunotech, Marseille, France), and either Tricolor (TRI) conjugated anti-CD4 (S3.5, Caltag, Burlingame, Calif.) or anti-CD8 (3B5, Caltag) for 30 minutes, 4° C. in the dark. The cells were fixed for 20 min at 4° C. with Cytofix/Cytoperm™ (BD Biosciences) and resuspended in Perm/Wash™ permeabilization buffer (BD Biosciences) according to manufacturers protocol. Fixed cells were stained with phycoerythrin (PE) conjugated anti-human IFN-γ (B27, Pharmingen) for 30 min at 4° C. in the dark. As a negative control, cells were stained with appropriate isotype matched control antibodies. Cells were washed twice in permeabilization buffer and resuspended in staining buffer before analysis by three-colour flow cytometry on a FACSCalibur cytometer (BD Biosciences). All data analysis was carried out using FlowJo software (Tree Star, Inc. San Carlos, CA).
(§3) When using 20-mer peptides to map epitopes by ELISPOT, it is possible that some responses may be MHC class-II restricted, and not necessarily restricted through HLA class I alleles. It was evident throughout this study that some epitopes identified using ELISPOT could not be confirmed using cytotoxicity analysis. […]

[6] = system: CD8+ T cells; assay: as above; format: cell-based, human
Protocol: as §1, §2, §3

[7] = system: peptide-sensitized autologous PHA blasts or LCLs; format: cell-based, human; design: key to CTL response: Y: Yes; ND: Not detected; settings: overlapping 20mer peptides, Table 4

T2 sequence (P04439 25-365): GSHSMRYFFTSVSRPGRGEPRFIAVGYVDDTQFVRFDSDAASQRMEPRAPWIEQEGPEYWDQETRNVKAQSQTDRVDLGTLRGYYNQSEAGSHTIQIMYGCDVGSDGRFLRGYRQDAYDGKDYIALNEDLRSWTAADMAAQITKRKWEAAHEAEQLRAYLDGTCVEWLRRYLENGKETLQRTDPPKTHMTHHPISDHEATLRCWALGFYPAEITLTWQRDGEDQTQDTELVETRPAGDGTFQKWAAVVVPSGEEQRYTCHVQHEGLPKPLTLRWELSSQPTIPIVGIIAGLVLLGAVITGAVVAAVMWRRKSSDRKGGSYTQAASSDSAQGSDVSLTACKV
T2 sequence (P61769 21-119, further chain): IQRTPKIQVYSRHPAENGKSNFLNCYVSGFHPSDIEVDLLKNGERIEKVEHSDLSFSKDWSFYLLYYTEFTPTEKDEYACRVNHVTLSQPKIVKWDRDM
T1 sequence (P01889 25-362): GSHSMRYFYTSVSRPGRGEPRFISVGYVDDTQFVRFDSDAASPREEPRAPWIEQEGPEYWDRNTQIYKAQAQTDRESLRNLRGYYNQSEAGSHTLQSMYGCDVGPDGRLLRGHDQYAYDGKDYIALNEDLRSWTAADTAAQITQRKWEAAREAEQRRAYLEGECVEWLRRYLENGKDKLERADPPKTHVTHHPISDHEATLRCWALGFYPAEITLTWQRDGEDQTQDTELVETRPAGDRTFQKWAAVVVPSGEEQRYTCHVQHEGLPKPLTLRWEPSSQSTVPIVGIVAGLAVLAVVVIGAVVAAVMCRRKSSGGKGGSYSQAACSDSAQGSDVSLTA
T1 sequence (P61769 21-119, further chain): as the sequence (P61769 21-119, further chain) above

| Sequence | MSE (MHC stabilization efficiency) [2] | MSE (MHC stabilization efficiency) [3] | also measured |
| --- | --- | --- | --- |
| EPMSIYVYAL |  |  | MSE (MHC stabilization efficiency) [1]: + (+ = 51-99%) |
| SYRSFSQQL (human cytomegalovirus gH CTL epitope peptide) | − (− = 0-50%) |  |  |
| TLLNCAVTK (human cytomegalovirus pp50 CTL epitope peptide) |  | +++ (+++ = 200-300%) |  |
| QVIGDQYVK |  | ++ (++ = 100-199%) |  |
| VYYTSAFVF | − (− = 0-50%) |  |  |
| SYVVTNQYL (human cytomegalovirus gH CTL epitope peptide) | − (− = 0-50%) |  |  |
| LVRLVYILSK (human cytomegalovirus gH CTL epitope peptide) |  | +++ (+++ = 200-300%) |  |
| SPRTHYLML (human cytomegalovirus gH CTL epitope peptide) |  |  | MSE (MHC stabilization efficiency) [1]: +++ (+++ = 200-300%) |
| KLGGALQAK (human cytomegalovirus IE1 CTL epitope peptide) |  | +++ (+++ = 200-300%) |  |
| ELYLMGSLVH (human cytomegalovirus gH CTL epitope peptide) |  | − (− = 0-50%) |  |
| RLNTYALVSK (human cytomegalovirus gH CTL epitope peptide) |  | +++ (+++ = 200-300%) |  |
| TVRSHCVSK (human cytomegalovirus pp50 CTL epitope peptide) |  | +++ (+++ = 200-300%) |  |
| ELLGRLNVY (human cytomegalovirus pp28 CTL epitope peptide) |  | − (− = 0-50%) |  |
| ELLAGGRVF (human cytomegalovirus pp28 CTL epitope peptide) |  | − (− = 0-50%) |  |
| KYTQTEEKF (human cytomegalovirus IE1 CTL epitope peptide) | − (− = 0-50%) |  |  |
| SLRNSTVVR (human cytomegalovirus gH CTL epitope peptide) |  | +++ (+++ = 200-300%) |  |
| RLFPDATVP (human cytomegalovirus gH CTL epitope peptide) |  | − (− = 0-50%) |  |
| AIIGIYLLY (human cytomegalovirus gH CTL epitope peptide) |  | NT/+++ (+++ = 200-300%) |  |
| LVEPCARVY (human cytomegalovirus pp28 CTL epitope peptide) |  | NT/++ (++ = 100-199%) |  |
| CYSRPVVIF (human cytomegalovirus gB CTL epitope peptide) | − (− = 0-50%) |  |  |
| EYIVQIQNAF (human cytomegalovirus pp71 CTL epitope peptide) | +++ (+++ = 200-300%) |  |  |
| SYLKDSDFL (human cytomegalovirus gH CTL epitope peptide) | − (− = 0-50%) |  |  |
| YYVFHMPRCL (human cytomegalovirus gH CTL epitope peptide) | − (− = 0-50%) |  |  |
| RLLDLAPNY (human cytomegalovirus pp28 CTL epitope peptide) |  | +++ (+++ = 200-300%) |  |
| VYALPLKML | − (− = 0-50%) |  |  |

| Sequence | MSE (MHC stabilization efficiency) [2] | MSE (MHC stabilization efficiency) [3] | also measured |
| --- | --- | --- | --- |
| SYENKTMQL (human cytomegalovirus gB CTL epitope peptide) | − (− = 0-50%) |  |  |
| AYIYTTYLL (human cytomegalovirus gB CTL epitope peptide) | − (− = 0-50%) |  |  |
| VYVTVDCNL (human cytomegalovirus US2 CTL epitope peptide) | − (− = 0-50%) |  |  |
| TYALVSKDL (human cytomegalovirus gH CTL epitope peptide) | − (− = 0-50%) |  |  |
| RVTGGGAMA |  | − (− = 0-50%) |  |
| IIYTRNHEVK (human cytomegalovirus IE2 CTL epitope peptide) |  | +++ (+++ = 200-300%) |  |
| VYLFSLVVL (human cytomegalovirus US3 CTL epitope peptide) | − (− = 0-50%) |  |  |
| LYLCCGITL (human cytomegalovirus US6 CTL epitope peptide) | − (− = 0-50%) |  |  |
| KMTATFLSK (human cytomegalovirus gB CTL epitope peptide) |  | +++ (+++ = 200-300%) |  |
| IMREFNSYK (human cytomegalovirus gB CTL epitope peptide) |  | +++ (+++ = 200-300%) | ELISPOT Responses (SFC/10^6 PBMC) ([4]; donor four): MB(202) SFC/10^6 PBMC |
| ALTVSEHVSY (human cytomegalovirus gH CTL epitope peptide) |  | ++ (++ = 100-199%) |  |
| QLNRHSYLK (human cytomegalovirus gH CTL epitope peptide) |  | +++ (+++ = 200-300%) |  |
| GVMTRGRLK |  | +++ (+++ = 200-300%) |  |
| YLMDELRYVK (human cytomegalovirus gH CTL epitope peptide) |  | − (− = 0-50%) |  |
| TYGRPIRFL (human cytomegalovirus gH CTL epitope peptide) | − (− = 0-50%) |  |  |
| SQYRIQGKLEYRHTWDRHDE |  |  | Responding cells (% CD4) ([5]; donor delta): 0%; Responding cells (% CD8) ([6]; donor delta): 2.0%; ELISPOT Responses (SFC/10^6 PBMC) ([4]; donor delta): SE(1203) SFC/10^6 PBMC; CTL response [7]: Y |
| LLLQRGPQY |  | +++ (+++ = 200-300%) |  |
| AYEYVDYLF (human cytomegalovirus gB CTL epitope peptide) | − (− = 0-50%) |  |  |
| ALALFAAAR (human cytomegalovirus gH CTL epitope peptide) |  | − (− = 0-50%) |  |
| WPRERAWALKNPHLAYNPFR (human cytomegalovirus pp150 CTL epitope peptide) |  |  | Responding cells (% CD4) ([5]; donor twelve): 0.03%; Responding cells (% CD8) ([6]; donor twelve): 0.27%; ELISPOT Responses (SFC/10^6 PBMC) ([4]; donor twelve): RE(83) SFC/10^6 PBMC; CTL response [7]: Y |
| MYMHDSDDVL (human cytomegalovirus gH CTL epitope peptide) | − (− = 0-50%) |  |  |
| VFTWPPWQAGILARNLVPMV |  |  | Responding cells (% CD4) ([5]; donor delta): 0%; Responding cells (% CD8) ([6]; donor delta): 0.45%; ELISPOT Responses (SFC/10^6 PBMC) ([4]; donor delta): 533 SFC/10^6 PBMC; ELISPOT Responses (SFC/10^6 PBMC) ([4]; donor four): 420 SFC/10^6 PBMC; CTL response [7]: Y |
| GIKHEGLVK (human cytomegalovirus pp28 CTL epitope peptide) |  | +++ (+++ = 200-300%) |  |
| NYLDLSALL (human cytomegalovirus gH CTL epitope peptide) | − (− = 0-50%) |  |  |
| QYILGADPL (human cytomegalovirus IE1 CTL epitope peptide) | +++ (+++ = 200-300%) |  |  |
